Results published in patent US20120258944A1, “ANTIOXIDANTS FOR USE IN THERAPY” (priority 2009, published 2012).

Experiments:
THP-1 cells = experiment: Chemiluminescence (Diogenes), ROS production in PMA stimulated THP-1 cells; format: cell-based, human
Source text: (§1) We investigated the capacity of the material to quench ROS produced by freshly isolated human neutrophils or THP-1 cells (human acute monocytic leukemia cell line) stimulated with PMA (Phorbol Myristate Acetate). The antioxidant capacity of selenide 1 was again compared to those of Trolox, a water soluble derivative of vitamin E, which is commonly used in biological and biochemical applications to reduce oxidative stress or damage.
The generation of oxygen free radicals over time from macrophages (THP-1) was monitored for 180 minutes in 96-well white optiplates (Greiner) using a using a TECAN reader and Diogenes chemiluminescence kit (National Diagnostics). Approximately 200 000 THP-1 cells diluted in HBSS containing different concentrations of the antioxidants 1 and Trolox were added per well to a 96 well plate together with the Diogenes reagent 20 v/% (following the manufacturers recommendations) and 40 micro-M Phorbol Myristate Acetate (PMA). Luminescence intensity was read every 6 min. The measurements were commonly performed on quadruplicate samples

[1] = system: human Neutrophils and human PBMCs; experiment: Intracellular ROS, luminol luminescence with SOD and catalase, PMA or fMLF stimulated cells; format: cell-based; settings: PMA or fMLF 30 ng/ml; compounds 120, 60, 30 microM; FIG. 5-8
Method: Validation was performed by stimulating cells with PMA and fMLF. When treated with the antioxidants, altered level of ROS production from the cells was measured using luminometry. Both intracellular and extracellular effect on ROS on the cells was analyzed using isoluminol (extracellular) and luminol (intracellular when co-administered with SOD and catalase) (Dahlgren et al. “Respiratory burst in human neutrophils”, Journal of Immunological Methods 232 1999; 3-14).
The luminol reagent buffer is made of HBSS buffer (with Ca^2+), luminol and SOD/Catalase.
1) Add 25 microL of antioxidants to assay plate to get proper concentrations in a total reaction volume of 100 micro-L. 2) Add 25 microL of PMA (120 ng/ml) and fMLF (120 ng/ml) to assay plate to get concentration of 30 ng/ml in a total reaction volume of 100 microL. 3) Add 50 microL of cell suspension (2 million cells/ml) to each well. Immediately after addition of cell suspension initiate luminescence measurement; the reaction starts at once when the cells are added to the assay plate. Measurement points are taken at 1-minute intervals for 25 minutes. Data is presented as AUC (Area Under Curve) by a summary of all collected measurements for each well.
FIG. 5: Intracellular ROS analyzed by Luminol (intracellular ROS) induced luminescence in human Neutrophils. ROS induced with PMA (30 ng/ml) with 200, 100 or 0 microM NAC. Concentrations of compounds 120, 60, 30 and 0 microM final concentrations.
FIG. 6: Intracellular ROS analyzed by Luminol (intracellular ROS) induced luminescence in human Neutrophils. ROS induced with fMLF (30 ng/ml) with 200, 100 or 0 microM NAC. Concentrations of compounds 120, 60, 30 and 0 microM final concentrations.
FIG. 7: Intracellular ROS analyzed by Luminol (intracellular ROS) induced luminescence in human PBMCs. ROS induced with PMA (30 ng/ml) with 200, 100 or 0 microM NAC. Concentrations of compounds 120, 60, 30 and 0 microM final concentrations.
FIG. 8: Intracellular ROS analyzed by Luminol (intracellular ROS) induced luminescence in human PBMCs. […]

[2] = system: MG-63, HEK-293, SHSY-5y, MRC-5 and CaCo-2-cells; experiment: Alamar Blue cell viability/proliferation assay; format: cell-based, human
Source text: Alamar Blue is a non-toxic metabolic indicator for viable cells. Following uptake, the dye becomes reduced and causes a change in the colour of the cell. The colour change correlates reasonably well with the number of living cells in the sample.
Cells w/o antioxidant were used as controls.
Alamar Blue is a non-toxic metabolic indicator for viable cells. Upon uptake into the cell the dye becomes reduced and changes colour. The colour change correlates approximately with the number of living cells in the sample.

human neutrophils = experiment: Luminol enhanced chemiluminescence, total ROS production in neutrophils; format: cell-based
Source text: as §1
Neutrophils were isolated from heparinized blood of apparently healthy blood donors (Academic Hospital, Uppsala, Sweden) following a routine dextran sedimentation method essentially as described by Halansson and Venge (Scandinavian Journal of Immunology 1980, 11, 271-282). To each of three test tubes containing 5 ml heparinized blood, dextran (T500, Pharmacia, Uppsala, Sweden) was added (final concentration 1%) and the sedimentation was allowed to proceed for 30 min at room temperature. […] Finally, the pellet was resuspended in Gey's buffer and the average content of neutrophils (approximately 90%) was calculated using Türks staining and hemocytometer method. […]
The generation of oxygen free radicals over time from neutrophils was monitored for 40 minutes in 24 well white optiplates (Greiner) using a Wallac Victor […] in the luminescence mode. […]

[3] = system: human umbilical vein endothelial cells (HUVEC); experiment: Visual evaluation of HUVECs under the microscope (dislodging from the surface); settings: human, 24 h
Method: Cells were harvested and resuspended in supplemented medium 200 without phenol red. 50 000 cells were added in duplicates to 96-well plates. The compounds were tested on HUVECs according to the following concentrations.
The compounds were diluted in Medium 200 from the 0.1M stock solution. The toxic effects of the compounds were tested after 24 hrs, 48 hrs and 72 hrs.
By visually looking at the cells under the microscope and estimating the dislodging from the surface, the state of the cells was evaluated.

SMILES: CC1Cc2cc(O)ccc2[Se]1 (centres unmarked) [Compound 1]
- effect on ROS production in THP-1 (THP-1 cells; 1, 10 and 20 micro-M, FIG. 24): clear, dose dependent, quenching/inhibiting effect
- quenching of ROS from THP-1 compared with Trolox (THP-1 cells; 20 micro-M each): considerably more effective than Trolox
- antioxidative effect on intracellular ROS [1]: strong antioxidative effect
- cell growth (Alamar Blue) [2]: normal cell growth patterns
- concentration until which no sign of cell death or decreased proliferation ([2]; human): 235 micro-M
- effect on ROS production in neutrophils (human neutrophils; 20, 40, 60 micro-M, FIG. 22): clear, dose dependent, quenching/inhibiting effect
- quenching of ROS from neutrophils compared with Trolox (human neutrophils; 20 micro-M each): considerably more effective than Trolox
- concentration at which cells were affected (visual) [3]: 500 µM
